Like-named read-outs stand apart in the source and are kept apart here.

For data set [1], the system named is soybean seedlings cv RAS 04. Conditions: in vivo.
Experimental: Disinfected seed surface of the soybean cultivar RAS 04 from RAGT were treated with the laboratory seed dressing equipment called Bol Hégé with the following products: • ADM 00050 F 1 A (500 SC) at 0.002-0.005-0.01-0.02 and 0.05 L/100 Kg seeds (1-2.5-5-10-25 g ai/100 Kg seeds), without coating agent. • Vibrance duo (25+25 g ai/L of Fludioxonil and Sedaxane SC) at 0.2 L/100 Kg seeds, corresponding to 5+5 g ai/100 Kg seeds of Fludioxonil and Sedaxane • Santhal (465 g ai/L of Metalaxyl-M (Mefenoxam) EC) at 0.064 L/100 Kg seeds (3 g ai/100 Kg seeds of Metalaxyl-M=Mefenoxam) without coating agent • Sterile distilled water Untreated Control, without coating agent
(§1) Treated or untreated soybean seeds were allowed to dry under laminar flow for 24 h before sowing.
Plastic Box of 500 cc were filled with 250 ml extra fine (vermiculite up to 2 5 cm of the top 3 boxes per treatment. 50 ml of sterilized soybean seeds previously inoculated with Rhizoctonia solani (strain RsolAG 2 2) grounded and mixed with XF vermiculite were spread over the 250 ml vermiculite. Same was done with the non-inoculated seeds serving as a reference for the germination test.
The inoculum was covered with 100 ml (1 cm) of XF vermiculite, and then 9 untreated or treated 9 soybean seeds were sown in each box. Seeds were covered with 150 ml (1.5 cm) of XF vermiculite. […]
In data set [2] the test system is soybean seedlings cv RAS 04. The settings on record: in vivo. This is another data set of the same source.
Experimental: as §1
Plastic Box of 500 cc were filled with 250 ml extra fine (vermiculite up to 2 5 cm of the top 3 boxes per treatment. 50 ml of sterilized soybean seeds previously inoculated with Sclerotinia sclerotiorum (strain Sscl wt) grounded and mixed with XF vermiculite were spread over the 250 ml vermiculite. Same was done with the non-inoculated seeds serving as a reference for the germination test.
The inoculum was covered with 100 ml (1 cm) of XF vermiculite, and then 9 untreated or treated 9 soybean seeds were sown in each box. Seeds were covered with 150 ml (1.5 cm) of XF vermiculite. The substrate was moistened with 200 ml of tap water and then weekly once with tap water and once with a 0 5 g/l nutrients solution (Plant Prod, Ltd N P K 20 20 20 and micronutrients). The lid was punctured and then placed on each box for 5 days to maintain saturated humidity. Boxes were placed in a climatic chamber with a photoperiod of 16 h light/8 h darkness, 2424° C. day/1818° C. night and a relative humidity of 85.
Phytotoxicity assessments were carried out checking analyzing the following parameters: • a. Rate of emergence of soybean seedlings after 7 days post sowing dps. • b. General development (pictures) of the aerial part of the soybean plants after 3 weeks of incubation

In the case of `COCC(=O)N(c1c(C)cccc1C)[C@H](C)C(=O)OC` [Metalaxyl-M], the “Seedling emergence rate (% of the total)” value in data set [1] and in data set [2] was 77.8 +/− 6.4a % of the total each time.

These data come from patent US20240172750A1, “5-Fluoro-4-Imino-3-Methyl-1-Tosyl-3,4-Dihydropyrimidin-2(1H)-One for Controlling Plant Diseases” (Adama Makhteshim Ltd., priority 2021, published 2024).
